As usually defined, the IC50 is the concentration at which inhibition is half-maximal. A low value points to inhibition by little substance.

The text below walks through data of patent EP4644384A1 (Shanghai Lichun Biotech Co., Ltd., priority 2023, dated 2024).

In this test the target is T1, CYP11A1 (Homo sapiens, UniProt P05108).
T1 construct: host or cells: NCI-H295R human adrenocortical cancer cells
T1 sequence (P05108 40-521): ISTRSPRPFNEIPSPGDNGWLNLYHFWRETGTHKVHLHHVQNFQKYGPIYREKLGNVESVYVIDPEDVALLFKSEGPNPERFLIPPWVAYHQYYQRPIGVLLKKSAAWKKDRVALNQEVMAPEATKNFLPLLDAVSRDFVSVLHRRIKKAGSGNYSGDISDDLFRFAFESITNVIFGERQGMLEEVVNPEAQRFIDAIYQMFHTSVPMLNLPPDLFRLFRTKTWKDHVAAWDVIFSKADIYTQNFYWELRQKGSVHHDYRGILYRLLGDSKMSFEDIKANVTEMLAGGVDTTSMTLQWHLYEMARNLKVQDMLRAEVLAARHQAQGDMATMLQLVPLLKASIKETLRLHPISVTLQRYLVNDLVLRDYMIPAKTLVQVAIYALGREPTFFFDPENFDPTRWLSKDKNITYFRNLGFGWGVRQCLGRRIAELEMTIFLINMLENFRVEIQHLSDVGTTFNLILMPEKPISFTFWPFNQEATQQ
Description: Pregnenolone synthesis inhibition in NCI-H295R cells (pregnenolone ELISA of culture supernatant). In kind it is cell-based. Conditions: 24 hours incubation, pregnenolone in culture supernatant by ELISA. The text has this:
Conversion of cholesterol into pregnenolone is a first rate-limiting step in the synthesis of all steroid hormones in vertebrates. This conversion reaction involves a two-step continuous monooxygenation reaction catalyzed by the unique cytochrome P450scc (CYP11A) to produce C22-hydroxycholesterol and C20,C22-dihydroxycholesterol in order, followed by CYP11A1-catalyzed breakage of a C20-C22 carbon-carbon single bond in C20,C22-dihydroxycholesterol to produce one molecule of pregnenolone and one molecule of 4-methylvaleraldehyde. Therefore, the inhibitory effect of a compound on CYP11A1 was identified by detecting the ability of the compound to inhibit pregnenolone synthesis.
The ability of different compounds to inhibit pregnenolone biosynthesis was determined by detecting the concentration of pregnenolone (Abnova pregnenolone ELISA kit, KA1912) using enzyme-linked immunosorbent assay (ELISA), so as to detect the ability of the compounds to inhibit CYP11A1. […] In order to determine the half-maximal inhibitory concentrations (IC50) of CYP11A1 inhibition by different compounds, the compounds were added during NCI-H295R cell culture, and after incubation, the concentration of pregnenolone in the culture supernatant was determined.
95 µl of NCI-H295R cells were taken and cultured overnight with a specialized cell culture medium (Procell, CM-0399) in a 96-well culture plate in a cell incubator at 37°C and 5% CO2. 5 µl/well of a DMSO (Sigma, D8418) solution of the compounds to be tested at different concentrations was then added, followed by continued incubation for 24 hours. The final concentrations of the compounds to be tested were 1000 nM, 333.33 nM, 111.11 nM, 37.04 nM, 12.35 nM, 4.12 nM, 1.37 nM, 0.46 nM, and 0 nM. After the incubation was complete, the cells were centrifuged, 80 µl/well of the cell culture supernatant was obtained and 1 : 8 diluted with the cell culture medium, and the concentration of pregnenolone therein was then determined by ELISA method. During ELISA detection, a pregnenolone standard was used to generate a standard curve. The experiment was carried out with replicate wells. The ELISA well plate had been coated with an anti-pregnenolone rabbit polyclonal antibody. In ELISA plate strips, 50 µl/well of the diluted culture supernatant or standard solution or reference substance was added, followed by 100 µl of a pregnenolone-HRP complex solution, and the plate was incubated for 1 hour at room temperature on a plate shaker (QILINBEIER, QB-9002) at 200 rpm. Then, the plate was washed three times with a cleaning solution, with 300 µl each time, and patted dry on absorbent paper. 150 µl of a TMB substrate was added. The plate was incubated on the plate shaker for 10-15 minutes at room temperature, and 50 µl of a stop solution was then added. The absorbance was measured at 450 nm by a microplate reader (PerkinElmer, 2105). The IC50 value was calculated by using GraphPad Prism software. [formula]
Background: ELISA stands for enzyme-linked immunosorbent assay.

Consider `Cn1c(CN2Cc3ccc(C(F)(F)F)cc3C2)ccc(OCC2CCN(S(C)(=O)=O)CC2)c1=O` [Compound 13, 1-methyl-3-((1-(methylsulfonyl)piperidine-4-yl)methoxy)-6-((5-(trifluoromethyl)isoindolin-2-yl)methyl)pyridin-2(1H)-one], for which 12 nM corresponded to half-maximal inhibition (IC50).
The result for `CN(C)S(=O)(=O)N1CCC(COc2ccc(CN3Cc4ccc(C(F)(F)F)cc4C3)n(C)c2=O)CC1` [Compound 22, N,N-dimethyl-4-(((1-methyl-2-oxo-6-((5-(trifluoromethyl)isoindolin-2-yl)methyl)-1,2-dihydropyridin-3-yl)oxy)methyl)piperidine-1-sulfonamide] reads 8.61 nM; that for `[2H]C([2H])([2H])n1c(CN2Cc3ccccc3C2)ccc(OCC2CCN(S(C)(=O)=O)CC2)c1=O` [Compound 17, 6-(isoindolin-2-ylmethyl)-1-(methyl-d3)-3-((1-(methylsulfonyl)piperidine-4-yl)methoxy)pyridin-2(1H)-one], 3.76 nM.
To `CS(=O)(=O)N1CCC(COc2ccc(CN3Cc4ccccc4C3)[nH]c2=O)CC1` [Compound 2, 6-(isoindolin-2-ylmethyl)-3-((1-(methylsulfonyl)piperidine-4-yl)methoxy)pyridin-2(1H)-one] belongs 222 nM; to `[2H]C([2H])([2H])n1c(CN2Cc3ccc(F)cc3C2)ccc(OCC2CCN(S(C)(=O)=O)CC2)c1=O` [Compound 24, 6-((5-fluoroisoindolin-2-yl)methyl)-1-(methyl-d3)-3-((1-(methylsulfonyl)piperidine-4-yl)methoxy)pyridin-2(1H)-one], 4.86 nM.
In turn, `[2H]C([2H])([2H])n1c(CN2Cc3ccc(C(F)(F)F)cc3C2)ccc(OCC2CCN(S(C)(=O)=O)CC2)c1=O` [Compound 14, 1-(methyl-d3)-3-((1-(methylsulfonyl)piperidine-4-yl)methoxy)-6-((5-(trifluoromethyl)isoindolin-2-yl)methyl)pyridin-2(1H)-one] showed an IC50 of 4.75 nM.
To `[2H]C([2H])([2H])n1c(CN2Cc3ccc(F)cc3C2)ccc(OCC2CCN(S(=O)(=O)C3CC3)CC2)c1=O` [Compound 20] belongs 1.94 nM; to `Cn1c(CN2Cc3ccc(F)cc3C2)ccc(OCC2CCN(S(C)(=O)=O)CC2)c1=O` [Compound 5, 6-((5-fluoroisoindolin-2-yl)methyl)-1-methyl-3-((1-(methylsulfonyl)piperidine-4-yl)methoxy)pyridin-2(1H)-one], 8.49 nM; to `Cn1c(CN2Cc3ccc(C(F)(F)F)cc3C2)ccc(OCC2CCN(S(=O)(=O)C3COC3)CC2)c1=O` [Compound 23, 1-methyl-3-((1-(oxetan-3-ylsulfonyl)piperidine-4-yl)methoxy)-6-((5-(trifluoromethyl)isoindolin-2-yl)methyl)pyridin-2(1H)-one], 3.57 nM.
The result for `Cn1c(CN2Cc3ccc(F)cc3C2)ccc(OCC2CCN(S(=O)(=O)C3COC3)CC2)c1=O` [Compound 12, 6-((5-fluoroisoindolin-2-yl)methyl)-1-methyl-3-((1-(oxetan-3-ylsulfonyl)piperidine-4-yl)methoxy)pyridin-2(1H)-one] reads 3.57 nM; that for `[2H]C([2H])([2H])n1c(CN2Cc3ccc(F)cc3C2)ccc(OCC2CCN(S(=O)(=O)C3COC3)CC2)c1=O` [Compound 15, 6-((5-fluoroisoindolin-2-yl)methyl)-1-(methyl-d3)-3-((1-(oxetan-3-ylsulfonyl)piperidine-4-yl)methoxy)pyridin-2(1H)-one], 3.99 nM.
`CCn1c(CN2Cc3ccccc3C2)ccc(OCC2CCN(S(=O)(=O)C(F)(F)F)CC2)c1=O` [Compound 27, 1-ethyl-6-(isoindolin-2-ylmethyl)-3-((1-((trifluoromethyl)sulfonyl)piperidine-4-yl)methoxy)pyridin-2(1H)-one] gave an IC50 of 0.136 nM.
`CN(C)S(=O)(=O)N1CCC(COc2ccc(CN3Cc4ccccc4C3)n(C)c2=O)CC1` [Compound 4, 4-(((6-(isoindolin-2-ylmethyl)-1-methyl-2-oxo-1,2-dihydropyridin-3-yl)oxy)methyl)-N,N-dimethylpiperidine-1-sulfonamide] came in with an IC50 of 1.74 nM.
The result for `CCn1c(CN2Cc3ccccc3C2)ccc(OCC2CCN(S(=O)(=O)NC)CC2)c1=O` [Compound 29, 4-(((1-ethyl-6-(isoindolin-2-ylmethyl)-2-oxo-1,2-dihydropyridin-3-yl)oxy)methyl)-N-methylpiperidine-1-sulfonamide] reads 14.8 nM; that for `Cn1c(CN2Cc3ccccc3C2)ccc(OCC2CCN(S(=O)(=O)C3COC3)CC2)c1=O` [Compound 6], 1.94 nM; that for `CC(=O)N1CCC(COc2ccc(CN3Cc4ccccc4C3)n(C)c2=O)CC1` [Compound 7, 3-((1-acetylpiperidine-4-yl)methoxy)-6-(isoindolin-2-ylmethyl)-1-methylpyridin-2(1H)-one], 9.34 nM.
To `CN(C)S(=O)(=O)N1CCC(COc2ccc(CN3Cc4ccc(F)cc4C3)n(C)c2=O)CC1` [Compound 11, 4-(((6-((5-fluoroisoindolin-2-yl)methyl)-1-methyl-2-oxo-1,2-dihydropyridin-3-yl)oxy)methyl)-N,N-dimethylpiperidine-1-sulfonamide] belongs 1.98 nM; to `[2H]C([2H])([2H])n1c(CN2Cc3ccc(C(F)(F)F)cc3C2)ccc(OCC2CCN(S(=O)(=O)C3CC3)CC2)c1=O` [Compound 19, 3-((1-(cyclopropylsulfonyl)piperidine-4-yl)methoxy)-1-(methyl-d3)-6-((5-(trifluoromethyl)isoindolin-2-yl)methyl)pyridin-2(1H)-one], 7.8 nM; to `Cn1c(CN2Cc3ccccc3C2)ccc(OCC2CCN(S(=O)(=O)C3CC3)CC2)c1=O` [Compound 3, 3-((1-(cyclopropylsulfonyl)piperidine-4-yl)methoxy)-6-(isoindolin-2-ylmethyl)-1-methylpyridin-2(1H)-one], 2.25 nM.
The compound `Cn1c(CN2Cc3ccc(C(F)(F)F)cc3C2)ccc(OCC2CCN(S(=O)(=O)C3CC3)CC2)c1=O` [Compound 21, 3-((1-(cyclopropylsulfonyl)piperidine-4-methyl)methoxy)-1-methyl-6-((5-(trifluoromethyl)isoindolin-2-yl)methyl)pyridin-2(1H)-one] gave an IC50 of 2.21 nM.
